From ChEMBL document CHEMBL1201862, “PubChem BioAssay data set” (2004)
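Grown in 96-well plates, cells were treated for 48 hours with each compound at five concentrations. Insufficient inhibition: endpoint recorded as highest concentration tested. GI50: concentration for 50% inhibition of growth.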 Calls of active or inactive are those of the source. No stated cut-off is given here; in the data, active = GI50 up to about 1.1 µM and inactive = higher.

Columns and labels:
Experiment in all cases: DTP human tumour cell line panel, 48 h
Hs-578T = tested on: Hs-578T
BT-549 = tested on: BT-549
SF-295 = tested on: SF-295
SNB-19 = tested on: SNB-19
SF-268 = tested on: SF-268
786-0 = tested on: 786-0
RXF 393 = tested on: RXF 393
A549 = tested on: A549
SK-MEL-5 = tested on: SK-MEL-5
T47D = tested on: T47D
MDA-MB-435 = tested on: MDA-MB-435
KM12 = tested on: KM12
K562 = tested on: K562
UO-31 = tested on: UO-31
SK-MEL-2 = tested on: SK-MEL-2
NCI-H460 = tested on: NCI-H460
COLO 205 = tested on: COLO 205
SK-MEL-28 = tested on: SK-MEL-28
M14 = tested on: M14
UACC-62 = tested on: UACC-62
U-251 = tested on: U-251
OVCAR-5 = tested on: OVCAR-5
MDA-N = tested on: MDA-N
MOLT-4 = tested on: MOLT-4
EKVX = tested on: EKVX
NCI/ADR-RES = tested on: NCI/ADR-RES
HL-60 = tested on: HL-60
HT-29 = tested on: HT-29
IGROV-1 = tested on: IGROV-1
SK-OV-3 = tested on: SK-OV-3
SNB-75 = tested on: SNB-75
HCT-15 = tested on: HCT-15
DU-145 = tested on: DU-145
PC-3 = tested on: PC-3
CAKI-1 = tested on: CAKI-1
OVCAR-8 = tested on: OVCAR-8
NCI-H226 = tested on: NCI-H226
NCI-H522 = tested on: NCI-H522
SR = tested on: SR
HOP-62 = tested on: HOP-62
LOX IMVI = tested on: LOX IMVI
HCC 2998 = tested on: HCC 2998
TK-10 = tested on: TK-10
OVCAR-4 = tested on: OVCAR-4
RPMI-8226 = tested on: RPMI-8226
CCRF-CEM = tested on: CCRF-CEM
HCT-116 = tested on: HCT-116
NCI-H23 = tested on: NCI-H23
MCF7 = tested on: MCF7
OVCAR-3 = tested on: OVCAR-3
MDA-MB-231 = tested on: MDA-MB-231
SW-620 = tested on: SW-620
ACHN = tested on: ACHN
SN12C = tested on: SN12C
UACC-257 = tested on: UACC-257
Malme-3M = tested on: Malme-3M
SF-539 = tested on: SF-539

With `O=C1Nc2ccccc2C1Cc1ccc([N+](=O)[O-])cc1` (stereo not given) the GI50 (Hs-578T) was 63.4 µM (inactive), the GI50 (BT-549) was > 100 µM (inactive) and the GI50 (SF-295) was > 100 µM (inactive). For the same compound, the GI50 (SNB-19) was > 100 µM (inactive), the GI50 (SF-268) was > 100 µM (inactive) and the GI50 (786-0) was > 100 µM (inactive). The GI50 (RXF 393) was > 100 µM (inactive), the GI50 (A549) was > 100 µM (inactive) and the GI50 (SK-MEL-5) was 57.5 µM (inactive). For the same compound, the GI50 (T47D) was > 100 µM (inactive), the GI50 (MDA-MB-435) was > 100 µM (inactive) and the GI50 (KM12) was 36.2 µM (inactive). The GI50 (K562) was > 100 µM (inactive), the GI50 (UO-31) was > 100 µM (inactive) and the GI50 (SK-MEL-2) was > 100 µM (inactive). For the same compound, the GI50 (NCI-H460) was > 100 µM (inactive), the GI50 (COLO 205) was 50 µM (inactive) and the GI50 (SK-MEL-28) was > 100 µM (inactive). For the same compound, the GI50 (M14) was > 100 µM (inactive), the GI50 (UACC-62) was > 100 µM (inactive) and the GI50 (U-251) was > 100 µM (inactive). The GI50 (OVCAR-5) was > 100 µM (inactive), the GI50 (MDA-N) was 71.4 µM (inactive) and the GI50 (MOLT-4) was 14.1 µM (inactive). The GI50 (EKVX) was > 100 µM (inactive), the GI50 (NCI/ADR-RES) was > 100 µM (inactive) and the GI50 (HL-60) was 5.57 µM (inactive). The GI50 (HT-29) was > 100 µM (inactive), the GI50 (IGROV-1) was 21.6 µM (inactive) and the GI50 (SK-OV-3) was > 100 µM (inactive). For the same compound, the GI50 (SNB-75) was > 100 µM (inactive), the GI50 (HCT-15) was > 100 µM and the GI50 (DU-145) was > 100 µM (inactive). For the same compound, the GI50 (PC-3) was 74 µM (inactive), the GI50 (CAKI-1) was > 100 µM (inactive) and the GI50 (OVCAR-8) was > 100 µM (inactive). For the same compound, the GI50 (NCI-H226) was > 100 µM (inactive), the GI50 (NCI-H522) was 35.9 µM (inactive) and the GI50 (SR) was 19.4 µM (inactive). The GI50 (HOP-62) was > 100 µM (inactive), the GI50 (LOX IMVI) was > 100 µM (inactive) and the GI50 (HCC 2998) was > 100 µM (inactive). For the same compound, the GI50 (TK-10) was > 100 µM (inactive), the GI50 (OVCAR-4) was 84.5 µM (inactive) and the GI50 (RPMI-8226) was 34.8 µM (inactive). The GI50 (CCRF-CEM) was 20.1 µM (inactive), the GI50 (HCT-116) was > 100 µM (inactive) and the GI50 (NCI-H23) was > 100 µM (inactive). For the same compound, the GI50 (MCF7) was > 100 µM (inactive), the GI50 (OVCAR-3) was > 100 µM (inactive) and the GI50 (MDA-MB-231) was 14 µM (inactive). For the same compound, the GI50 (SW-620) was > 100 µM (inactive), the GI50 (ACHN) was > 100 µM (inactive) and the GI50 (SN12C) was > 100 µM (inactive). The GI50 (UACC-257) was > 100 µM (inactive).

With `N#Cc1c(NC(=S)NC(=O)c2ccccc2)nc2c(c1-c1ccccc1)CCC2` the GI50 (Hs-578T) was 39.8 µM (inactive), the GI50 (BT-549) was > 100 µM (inactive) and the GI50 (SF-295) was 91.2 µM (inactive). The GI50 (SNB-19) was > 100 µM (inactive), the GI50 (SF-268) was > 100 µM (inactive) and the GI50 (A549) was > 100 µM (inactive). For the same compound, the GI50 (SK-MEL-5) was 73.3 µM (inactive), the GI50 (T47D) was 25.5 µM (inactive) and the GI50 (MDA-MB-435) was > 100 µM (inactive). For the same compound, the GI50 (KM12) was > 100 µM (inactive), the GI50 (K562) was > 100 µM (inactive) and the GI50 (UO-31) was 8.67 µM (inactive). The GI50 (NCI-H460) was > 100 µM (inactive), the GI50 (Malme-3M) was 78.7 µM (inactive) and the GI50 (COLO 205) was > 100 µM (inactive). The GI50 (M14) was > 100 µM (inactive), the GI50 (UACC-62) was > 100 µM (inactive) and the GI50 (U-251) was > 100 µM (inactive). For the same compound, the GI50 (OVCAR-5) was > 100 µM (inactive), the GI50 (MDA-N) was > 100 µM (inactive) and the GI50 (MOLT-4) was 58.1 µM (inactive). The GI50 (EKVX) was 24.5 µM (inactive), the GI50 (NCI/ADR-RES) was > 100 µM (inactive) and the GI50 (HL-60) was > 100 µM (inactive). For the same compound, the GI50 (HT-29) was > 100 µM (inactive), the GI50 (IGROV-1) was > 100 µM (inactive) and the GI50 (SK-OV-3) was > 100 µM (inactive). The GI50 (SNB-75) was 22.7 µM (inactive), the GI50 (HCT-15) was > 100 µM and the GI50 (DU-145) was > 100 µM (inactive). The GI50 (PC-3) was > 100 µM (inactive), the GI50 (CAKI-1) was > 100 µM (inactive) and the GI50 (OVCAR-8) was 67 µM (inactive). For the same compound, the GI50 (SR) was > 100 µM (inactive), the GI50 (HOP-62) was > 100 µM (inactive) and the GI50 (LOX IMVI) was > 100 µM (inactive). The GI50 (SF-539) was > 100 µM (inactive), the GI50 (TK-10) was 91 µM (inactive) and the GI50 (OVCAR-4) was > 100 µM (inactive). For the same compound, the GI50 (RPMI-8226) was > 100 µM (inactive), the GI50 (CCRF-CEM) was > 100 µM (inactive) and the GI50 (HCT-116) was > 100 µM (inactive). For the same compound, the GI50 (NCI-H23) was > 100 µM (inactive), the GI50 (MCF7) was > 10 µM (inactive) and the GI50 (OVCAR-3) was > 100 µM (inactive). For the same compound, the GI50 (MDA-MB-231) was 43.9 µM (inactive), the GI50 (SW-620) was > 100 µM (inactive) and the GI50 (ACHN) was > 100 µM (inactive). For the same compound, the GI50 (SN12C) was 78.2 µM (inactive) and the GI50 (UACC-257) was > 100 µM (inactive).
